Structures can show the parent of a compound that is named as a salt. Where two headings read alike, the source gives them in different places.
What was measured:
[1] = system: platelet aggregation (platelet-rich plasma); assay: Antithrombotic activity: inhibition of collagen-induced platelet aggregation in platelet-rich plasma (Born and Cross); type: cell-based, human (healthy volunteers); settings: 50% change in optical density, human platelet-rich plasma, 10 min preincubation
Method: 2. Antithrombotic Activity Method The thrombocyte aggregation is measured using the Born and Cross method (J. Physiol. 170:397 (1964)) in platelet-rich plasma taken from healthy volunteers. To inhibit coagulation the blood is mixed with 3.14% sodium citrate in a ratio by volume of 1:10. Collagen-induced aggregation The pattern of the decrease in optical density of the platelet suspension is photometrically measured and recorded after the addition of aggregation-triggering substance. The rate of aggregation is concluded from the angle of inclination of the density curve. The point on the curve where there is maximum light transmittance is used to calculate the optical density. The amount of collagen used is as small as possible but sufficient to produce an irreversible reaction curve. Standard commercial collagen produced by Hormonchemie of Munich is used. Before the addition of the collagen the plasma is incubated for 10 minutes with the substance at […]. From the measurements obtained an EC50 is determined graphically, indicating a 50% change in the optical density in terms of the inhibition of aggregation.

Human Thrombocytes = assay: Fibrinogen binding to human thrombocytes (fibrinogen binding test)
Method: 1. Fibrinogen Binding to Human Thrombocytes The blood obtained by puncturing an antecubital vein is anticoagulated with trisodium citrate (final concentration: 13 mM) and centrifuged for 10 minutes at 170× g. The supernatant platelet-rich plasma is poured onto a Sepharose 2B column (Pharmacia) and eluted with a solution of 90 mM common salt, 14 mM trisodium citrate, 5 mM glucose and 50 mM tris(hydroxymethyl)aminomethane, adjusted to pH 7.4. The gel-filtered platelets (GFP) appearing before the plasma proteins are used for the binding experiments. 50 μl of a 60 mM calcium chloride solution, 50 μl of a 0.6 mM adenosine diphosphate solution, 100 μl of substance solution or solvent and 50 μl of fibrinogen solution (containing 3 μg of ^125 fibrinogen) are added to 750 μl of GFP and incubated for 20 minutes at ambient temperature. The non-specific binding is determined in the presence of 3 mg/ml of cold fibrinogen. 900 μl of the incubated material are carefully pipetted onto 250 μl of silicon oil (AP 38: AR 20, 1:2 v/v, Wacker Chemie) in Eppendorf tubes and centrifuged for 2 minutes at 10,000× g. The aqueous supernatant and some of the oil are drawn off, the tips of the tubes are cut off together with the platelet pellet and the quantity of bound fibrinogen is determined in a gamma counter. The concentration of substance which brings about a 50% inhibition in fibrinogen binding is determined from a series of concentrations and is given as the IC50 value. | *^125 I fibrogen was replaced by […] |e.

mice = assay: Tolerance after intravenous administration to mice; type: in vivo; settings: 30 mg/kg intravenous, three mice
[2] = 125I fibrinogen, 50% inhibition of fibrinogen binding, gel-filtered human platelets, ADP, 20 min ambient temperature, read-out: Fibrinogen binding test IC50
[3] = *: 125I fibrinogen replaced by 3H-(3S,5S)-5-[(amidino-biphenylyl)-oxymethyl]-carboxymethyl-pyrrolidinone ligand, read-out: Fibrinogen binding test IC50 (values marked *)

SMILES	EC50 [1] [nM]	IC50 (Human Thrombocytes; [2]) [nM]	IC50 (Human Thrombocytes; [3]) [nM]	deaths after intravenous administration (mice)
COC(=O)CCNC(=O)c1cc2nc(-c3ccc(C(=N)N)cc3)n(C)c2cc1N(C)C(=O)OCC(C)C [3(130), 2-(4-amidino-phenyl)-6-(N-isobutyloxycarbonyl-N-methyl-amino)-5-[(2-methoxycarbonyl-ethyl)-aminocarbonyl]-1-methyl-benzimidazole]	160	14000	–	–
N=C(N)c1ccc(-c2nc3cc(C(=O)NCCC(=O)OCC4CCCCC4)ccc3n2CCCCc2ccccc2)cc1 [13(6), 2-(4-amidino-phenyl)-5-[(2-cyclohexylmethyloxy-carbonyl-ethyl)-aminocarbonyl]-1-(4-phenyl-butyl)-benzimidazole dihydrochloride]	980	–	130	–
COC(=O)CCNC(=O)c1ccc2[nH]c(-c3ccc(C(=N)N)cc3)nc2c1 [15(1), 2-(4-amidino-phenyl)-5(6)-[(2-methoxycarbonyl-ethyl)-aminocarbonyl]-benzimidazole-hydrochloride]	4100	–	2500	–
N=C(N)c1ccc(-c2nc3cc(C(=O)NCCC(=O)O)ccc3n2CCCCc2ccccc2)cc1 [17(7), 2-(4-amidino-phenyl)-5-[(2-carboxy-ethyl)-aminocarbonyl]-1-(4-phenyl-butyl)-benzimidazole-dihydrobromide]	290	–	5.4	–
N=C(N)c1ccc(-c2nc3cc(C(=O)NCCC(=O)O)ccc3n2CCc2cc(Br)c(N)c(Br)c2)cc1 [17(8), 2-(4-amidino-phenyl)-1-[2-(4-amino-3,5-dibromo-phenyl)-ethyl]-5-[(2-carboxy-ethyl)-aminocarbonyl]-benzimidazole-dihydrobromide]	350	–	47	–
N=C(N)c1ccc(-c2nc3cc(C(=O)NCCC(=O)O)ccc3n2CCC(c2ccccc2)c2ccccc2)cc1 [17(9), 2-(4-amidino-phenyl)-5-[(2-carboxy-ethyl)-aminocarbonyl]-1-(3,3-diphenyl-propyl)-benzimidazole-dihydrobromide]	1140	–	9.5	–
Cn1c(-c2ccc(C(=N)N)cc2)nc2cc(C(=O)NCCC(=O)O)cnc21 [17(13), 2-(4-amidino-phenyl)-6-[(2-carboxy-ethyl)-aminocarbonyl]-3-methyl-imidazo[4,5-b]pyridine-dihydrobromide]	40	–	20	–
Cn1c(-c2ccc(C(=N)N)cc2)nc2cc(C(=O)NCCC(=O)O)ccc21 [Example 1(3), 2-(4-amidino-phenyl)-5-[(2-carboxy-ethyl)-aminocarbonyl]-1-methyl-benzimidazole]	70	37	–	no animals died
Cn1c(-c2ccc(C(=N)N)cc2)nc2cc(C(=O)NCCCC(=O)O)ccc21 [Example 1, 2-(4-Amidino-phenyl)-5-[(3-carboxy-propyl)-aminocarbonyl]-1-methyl-benzimidazole]	27000	33000	–	–
COC(=O)CCNC(=O)c1ccc2c(c1)nc(-c1ccc(C(=N)N)cc1)n2CCCN1CC[S+]([O-])CC1 [Example 5, 2-(4-Amidino-phenyl)-5-[(2-methoxycarbonyl-ethyl)-aminocarbonyl]-1-[3-(S-oxido-thiomorpholino)-propyl]-benzimidazole-hydrochloride]	43000	–	15000	–
COC(=O)CCNC(=O)c1ccc2c(c1)nc(-c1ccc(CN)cc1)n2CCCN [Example 6, 2-(4-Aminomethyl-phenyl)-1-(3-amino-propyl)-5-[(2-methoxycarbonyl-ethyl)-aminocarbonyl]-benzimidazole]	3700	4000	–	–
COc1ccc(CCn2c(-c3ccc(C(=N)N)cc3)nc3cc(C(=O)NCCC(=O)OC(C)C)ccc32)cc1OC [Example 13, 2-(4-Amidino-phenyl)-1-[2-(3,4-dimethoxy-phenyl)-ethyl]-5-[(2-isopropyloxycarbonyl-ethyl)-aminocarbonyl]-benzimidazole-dihydrochloride]	5700	–	1700	–
N=C(N)c1ccc(-c2nc3cc(C(=O)NCCC(=O)O)ccc3n2CCN2CCNCC2)cc1 [Example 15, 2-(4-Amidino-phenyl)-5-[(2-carboxy-ethyl)-aminocarbonyl]-1-(2-piperazino-ethyl)-benzimidazole-hydrogen acetate]	40	28	–	–
NCCCn1c(-c2ccc(CN)cc2)nc2cc(C(=O)NCCC(=O)O)ccc21 [Example 17, 2-(4-Aminomethyl-phenyl)-1-(3-amino-propyl)-5-[(2-carboxy-ethyl)-aminocarbonyl]-benzimidazole-hydrogen acetate]	3800	1000	–	–

Now from value to molecule, other results behind:

EC50 [1] [nM]	IC50 (Human Thrombocytes; [2]) [nM]	IC50 (Human Thrombocytes; [3]) [nM]	SMILES	deaths after intravenous administration (mice)
80	140	–	COC(=O)CCCCn1c(=O)c2nc(-c3ccc(C(=N)N)cc3)n(C)c2n(C)c1=O [3(141), 8-(4-amidino-phenyl)-3,9-dimethyl-1-(4-methoxycarbonyl-butyl)-xanthine hyd rochloride-hydroacetate]	–
18000	–	5500	COC(=O)CCNC(=O)c1ccc2c(c1)nc(-c1ccc(C(=N)N)cc1)n2CCCN1CCS(=O)(=O)CC1 [5(6), 2-(4-amidino-phenyl)-1-[3-(S,S-dioxido-thiomorpholino)-propyl]-5-[(2-methoxycarbonyl-ethyl)-aminocarbonyl]-benzimidazole-hydrochloride]	–
4300	–	1400	N=C(N)c1ccc(-c2nc3cc(C(=O)NCCC(=O)OC4CCCCC4)ccc3n2CCCCc2ccccc2)cc1 [13(3), 2-(4-amidino-phenyl)-5-[(2-cyclohexyloxycarbonyl-ethyl)-aminocarbonyl]-1-(4-phenyl-butyl)-benzimidazole dihydrochloride]	–
1530	700	–	Cn1c(-c2ccc(CN)cc2)nc2cc(C(=O)NCCC(=O)O)ccc21 [17(1), 2-(4-aminomethyl-phenyl)-5-[(2-carboxy-ethyl)-aminocarbonyl]-1-methyl-benzimidazole-dihydrobromide]	–
80	–	22	COc1ccc(CCn2c(-c3ccc(C(=N)N)cc3)nc3cc(C(=O)NCCC(=O)O)ccc32)cc1OC [17(2), 2-(4-amidino-phenyl)-5-[(2-carboxy-ethyl)-aminocarbonyl]-1-[2-(3,4-dimethoxy-phenyl)-ethyl]-benzimidazole-dihydrobromide]	–
430	–	170	N=C(N)c1ccc(-c2nc3cc(C(=O)NCCC(=O)O)ccc3n2Cc2cccnc2)cc1 [17(3), 2-(4-amidino-phenyl)-5-[(2-carboxy-ethyl)-aminocarbonyl]-1-(3-pyridylmethyl)-benzimidazole-dihydrobromide]	–
> 100000	–	1900	CCCCCCCCCCCCCCn1c(-c2ccc(CN)cc2)nc2cc(C(=O)NCCC(=O)O)ccc21 [17(4), 2-(4-aminomethyl-phenyl)-5-[(2-carboxy-ethyl)-aminocarbonyl]-1-n-tetradecyl-benzimidazole-dihydrobromide]	–
2130	–	370	COc1ccc(CCn2c(-c3ccc(CN)cc3)nc3cc(C(=O)NCCC(=O)O)ccc32)cc1OC [17(5), 2-(4-aminomethyl-phenyl)-5-[(2-carboxy-ethyl)-aminocarbonyl]-1-[2-(3,4-dimethoxy-phenyl)-ethyl]-benzimidazole-dihydrobromide]	–
30000	–	1800	CCCCCCCCCCCCCCn1c(-c2ccc(C(=N)N)cc2)nc2cc(C(=O)NCCC(=O)O)ccc21 [17(6), 2-(4-amidino-phenyl)-5-[(2-carboxy-ethyl)-aminocarbonyl]-1-n-tetradecyl-benzimidazole-dihydrobromide]	–
27000	26000	–	Cn1c(-c2ccc(C(=N)N)cc2)nc2cc(C(=O)N3CCCC(C(=O)O)C3)ccc21 (stereo not shown) [17(10), 2-(4-amidino-phenyl)-5-[(3-carboxy-piperidino)-carbonyl]-1-methyl-benzimidazole-dihydrobromide]	–
